Values after ≈ are worked out from the molar mass of the structure shown.
Experiments:
[1] = Solubility test for loteprednol etabonate (LE), Example 1-1: different amino acids, oligopeptides or monosaccharide as stabilizer; assay type: physicochemical; settings: aqueous with cosolvent or surfactant or cyclodextrin, thermodynamic from solid; LE feeding 4000 μg; re-dissolved in 2 mL deionized water, pH 5.5, room temperature, 0.22 μm filtered, HPLC
Method: The samples were formulated and analyzed according to the formulas shown in the following Table 1 and the methods described below at room temperature. […] After that, the mixture was dried in a vacuum environment to performing drying to remove the solvent therein and obtain a dried product. […] Next, the test sample was filtered with a 0.22 μm pore size filter to remove undissolved precipitate. Finally, the content of loteprednol etabonate (LE) in the test sample was analyzed by high performance liquid chromatography (HPLC).

[2] = Solubility test for LE, Example 1-2: histidine as stabilizer; assay type: physicochemical; settings: secondary water, aqueous with cosolvent or surfactant or cyclodextrin; final volume 1 mL, pH 5.5, room temperature, 0.22 μm filtered, HPLC
From the text: The samples were formulated and analyzed according to the formulas shown in the following Table 3 and the methods described below at room temperature.
Hydroxypropyl-γ-cyclodextrin, a water-soluble polymer (hydroxypropyl methyl cellulose (HPMC) (molecular weight: 16676)), and histidine (His) as a stabilizer of the formulation were co-dissolved in secondary water to form a solution.
[…] After that, […], and the pH was adjusted to 5.5 with a 0.1 M HCl aqueous solution, and the final solution volume was fixed to 1 mL (the insufficient portion was replenished with secondary water) to form a test sample. Thereafter, the test sample was then filtered with a 0.22 μm pore size filter to remove undissolved precipitate. Finally, the content of loteprednol etabonate (LE) in the test sample was analyzed by high performance liquid chromatography (HPLC).

[3] = Solubility test for LE, Example 1-3: glutathione as stabilizer; assay type: physicochemical; settings: secondary water, aqueous with cosolvent or surfactant or cyclodextrin; final volume 1 mL, pH 5.5, room temperature, 0.22 μm filtered, HPLC
Method: The samples were formulated and analyzed according to the formula shown in the following Table 5 and the methods described below at room temperature.
[…] After that, the mixture was treated by a rotary evaporator to completely remove methanol, and the pH was adjusted to 5.5 with a 1 M NaOH aqueous solution, and the final solution volume was fixed to 1 mL (the insufficient portion was replenished with secondary water) to form a test sample. Thereafter, the test sample was then filtered with a 0.22 μm pore size filter to remove undissolved precipitate. Finally, the content of loteprednol etabonate (LE) in the test sample was analyzed by high performance liquid chromatography (HPLC).

[4] = at 25° C.; cited from earlier work

| solubility [1] | solubility [2] | solubility [3] | Compound | Water solubility [4] |
| --- | --- | --- | --- | --- |
| 1.5 µg/mL (≈ 3.21 µM) | 1.5 µg/mL (≈ 3.21 µM) | 1.5 µg/mL (≈ 3.21 µM) | CCOC(=O)O[C@]1(C(=O)OCCl)CC[C@H]2[C@@H]3CCC4=CC(=O)C=C[C@]4(C)[C@H]3[C@@H](O)C[C@@]21C [LE, loteprednol etabonate] |  |
|  |  |  | OC[C@@H](O)[C@@H](O)[C@H](O)[C@H](O)CO [Mannitol, mannitol] | 1190 mM |
|  |  |  | N[C@@H](CCC(=O)N[C@@H](CS)C(=O)NCC(=O)O)C(=O)O [GSH, glutathione] | 950 mM |
